Consider eight compounds from PMC9527238, “Glutamate and GABAA receptor crosstalk mediates homeostatic regulation of neuronal excitation in the mammalian brain” (Signal Transduction and Targeted Therapy, 2022).

Read-outs that look alike come from different tables or passages of the source.

Assay [1] deals with T1, rat α1β2 GABAARs (Rattus norvegicus, UniProt P62813+P63138).
T1 construct: expressed in transfected cells; host or cells: HEK293
As to the kind of experiment: Whole-cell patch clamp of GABA-evoked currents, HEK293 cells expressing α1β2. In kind it is cell-based. An excerpt: (§1) Co-expression of the α and β subunits is the minimum requirement for a functional recombinant GABAAR expressed in a heterologous cell line such as HEK293, while co-expression of the α, β and γ subunits is required for the recombinant receptor with a full pharmacological profile.[2] We therefore transiently expressed either rat α1β2 or α1β2γ2 subunits in HEK293 cells.
HEK293 cells were transiently transfected with rat GABAAR α1/β2 (a–e) or α1/β2/γ2 (f) subunits. Whole-cell voltage-clamp recordings were performed with a chloride-based intracellular recording solution at a holding membrane potential of −60 mV.
(§2) HEK293 cells were cultured in DMEM (Invitrogen) supplemented with 10% fetal bovine serum. Cells were grown to 40–60% confluence and transiently transfected using Lipofectamine 2000 (Invitrogen) with 1:0.5–1 plasmid/lipid ratio. Cells were transfected with a pBK-CMV expression vector containing a rat recombinant GABAAR α, β or γ subunits. Co-transections were done with a plasmid ratio of 1:1 αβ and 2:2:1 for αβγ subunit combinations, respectively. pcDNA3.1-GFP was also co-transfected along with GABAAR subunits as a transfected marker in order to facilitate the visualization of the transfected cells during electrophysiological experiments. Cells were re-plated on glass coverslips after 15–20 h transfection and were cultured for an additional 15–24 h before whole-cell patch-clamp recordings.
(§3) Whole-cell patch-clamp recordings were performed under voltage-clamp mode using an Axopatch 200B or 1D patch-clamp amplifier (Molecular Devices) on HEK293 cells and cultured neurons. Whole-cell currents were recorded at a holding potential of −60 mV, and signals were filtered at 2 kHz, digitized at 10 kHz (Digidata 1322 A). Recording pipettes (3–5 MΩ) were filled with the intracellular solution that contained (mM): CsCl 140, HEPES 10, Mg-ATP 4, QX-314 5, pH 7.20; osmolarity, 290–295 mOsm. BAPTA (10 mM) was added in the intracellular solution. The coverslips were continuously superfused with the extracellular solution containing (mM): NaCl 140, KCl 5.4, HEPES 10, MgCl2 1.0, CaCl2 1.3, glucose 20, pH 7.4; osmolarity, 305–315 mOsm. […] Dose–response curves were created by fitting data to Hill equation: I = Imax/[1 + (EC50/[A])^n], where I is the current, Imax is the maximum current, [A] is a given concentration of agonist, n is the Hill coefficient. […] All experiments were performed at room temperature.
For orientation: Patch clamp records ionic current or voltage across a cell membrane.

In assay [2] the target is T2, rat α1β2γ2 GABAARs (Rattus norvegicus, UniProt P62813+P63138).
T2 construct: expressed in transfected cells; host or cells: HEK293
The assay is described as follows: Whole-cell patch clamp of GABA-evoked currents, HEK293 cells expressing wild-type α1β2γ2. In kind it is cell-based. How it is done: as §1, §2, §3

Assay [3] addresses T3, α1β2 GABAARs (Rattus norvegicus, UniProt P62813+P63138).
T3 construct: expressed in transfected cells; host or cells: HEK293
The assay is described as follows: [3H]glutamate binding assay, plasma membranes of HEK293 cells overexpressing α1 and β2. As to the method: For membrane preparation, transfected or non-transfected HEK293 cells were washed twice with cold PBS and harvested by scraping into 5 ml cold PBS. Cells were then centrifuged at 1200 × g for 12 min at 4 °C and medium was removed. The washing procedure was repeated twice. Then the cell pellet was re-suspended into 1 ml of 50 mM Tris-HCl buffer (pH 7.4, with protease inhibitor) and homogenized using syringes with 18-G, 21-G and 23-G needles.
To separate the membrane, the homogenate were centrifuged for 20 min at 20,000 × g at 4 °C. Then the pellet was re-suspended into 1 ml of 50 mM Tris-HCl buffer, pH 7.4 and centrifuged again. After repeating this procedure for one more time, the pellet was re-suspended into 1 ml of 50 mM Tris-HCl buffer, pH 7.4 and the protein concentration was measured.
To conduct the binding assay, 100 µg membrane enriched preparation was incubated with 40 nM [3H]-Glutamate in a total volume of 0.5 ml in 50 mM Tris-HCl buffer, pH 7.4 for 1 h on ice. […] Then the reaction was terminated by quickly filtering the solution on Whatman filter paper and washing by 3.5 ml Tris-HCl buffer. Radioactivity was measured in a Beckman liquid scintillation counter.

Assay [4] concerns native GABAARs. As to the kind of experiment: GABA-evoked whole-cell currents in cultured hippocampal neurons. In kind it is cell-based, rat. As to the method: (§4) Cultured hippocampal neurons were prepared from the brains of D18 fetal Wister rats. Tissues were digested with a 0.25% trypsin solution (Invitrogen) for 25 min at 37 °C, and then mechanically dissociated using a fire-polished Pasteur pipette. Next, the cell suspension was centrifuged at 2500 × g for 50 s and the cell pellets were resuspended in DMEM containing 10% Fetal Bovine Serum (FBS; Sigma-Aldrich). Cells were seeded on poly-D-lysine-coated 24-well coverslips at a density of 2.5 × 10^5 cells/well. Cultures were maintained in a humidified incubator with 5% CO2 at 37 °C. After 24 h, plating medium was changed to Neurobasal medium supplemented with B-27 supplement and L-glutamine, and the media changed twice weekly thereafter. Cultured neurons were used for electrophysiological recordings between 10–14 days after plating.
as §3

Assay [5] deals with postsynaptic GABAARs. As to the kind of experiment: mIPSCs in cultured hippocampal neurons. In kind it is cell-based, rat. Conditions: AP5 200 μM; TTX 0.5 μM, CNQX 10 μM. How it is done: (§5) GABAAR-mediated inhibitory processes in the CNS include phasic and tonic inhibitions. The phasic inhibition is primarily mediated by the activation of postsynaptic GABAARs and can be evaluated by recording miniature inhibitory postsynaptic currents (mIPSCs; Fig. 2c).
as §4, with “Cultured neurons were used for electrophysiological recordings between 10–14 days after plating.” left out
(§6) Whole-cell patch-clamp recordings were performed under voltage-clamp mode using an Axopatch 200B or 1D patch-clamp amplifier (Molecular Devices) on HEK293 cells and cultured neurons. Whole-cell currents were recorded at a holding potential of −60 mV, and signals were filtered at 2 kHz, digitized at 10 kHz (Digidata 1322 A). […]

Assay [6] relates to extrasynaptic GABAARs. The assay is described as follows: GABAAR-mediated tonic currents in cultured hippocampal neurons. It counts as cell-based, rat. Conditions: prior addition of AP5 200 μM; bicuculline 10 μM. As to the method:
as §5
as §4, with “Cultured neurons were used for electrophysiological recordings between 10–14 days after plating.” left out
as §6

The test system of assay [7] is GABAAR-mediated currents, WT mice. As to the kind of experiment: Whole-cell recording of CA1 neurons, hippocampal slices of WT mice. It counts as cell-based, mouse. The conditions noted are these: AP5 50 µM. As to the method:
(§7) We next determined if glutamate-mediated allosteric potentiation of GABAAR function was impaired in hippocampal slices acutely prepared from postnatal 90-day-old KI mice. Whole-cell recordings of CA1 neurons were performed under voltage clamp configuration at a holding potential of −60 mV.
(§8) Mice were deeply anesthetized with urethane (1.5 g/kg, i.p.) and transcardially perfused with ice cold sucrose hypertonic cutting solution (in mM: KCl 3.0, NaH2PO4.H2O 1.25, NaHCO3 26, Na-vitamin C 0.4, Na-lactate 2.0, Na-pyruvate 2.0, D-glucose 10.0, Sucrose 220, CaCl2 0.1, MgCl2 2, MgSO4 4.0, pH 7.4, 290–300 mOsm/l) prior to decapitation as described previously.[47] After decapitation, the brain was rapidly removed and transferred to the ice cold cutting solution bubbled with 95% O2 and 5% CO2, and acute coronal brain slices (400 μm) were prepared on a Leica vibratome (VT1200S, Germany). All brain slices were placed into a standard artificial cerebral spinal fluid (ACSF) (in mM: NaCl 124, KCl 2.8, NaH2PO4.H2O 1.25, NaHCO3 26, Na-vitamin C 0.4, Na-lactate 2.0, Na-pyruvate 2.0, D-glucose 10.0, CaCl2 2, MgSO4 1.2, pH 7.4, 290–300 mOsm/l) incubated at 35 °C for 2 h prior to recording. Field excitatory postsynaptic potential (fEPSP) recordings were performed under current-clamp mode using HEKA EPC10 patch-clamp amplifier (HEKA Electronic, Lambrecht/Pfalz, Germany). […]

In assay [8] the target is T4, GABAAR-mediated currents, β2E181G KI mice (Mus musculus, UniProt P63137, E206G).
T4 construct: from tissue; host or cells: acute hippocampal slices of homozygous β2E181G knock-in mice (C57BL/6J), CA1 neurons
As to the kind of experiment: Whole-cell recording of CA1 neurons, hippocampal slices of homozygous β2E181G KI mice. The conditions noted are these: AP5 50 µM; homozygous KI slices. In kind it is cell-based. How it is done: as §7, §8

Assay [9] deals with NMDA receptors. As to the kind of experiment: NMDA receptor blockade in cultured hippocampal neurons. In kind it is cell-based, rat. The conditions noted are these: MK-801 10 μM co-applied with NMDA 50 μM through the bath for 3 min.
Assay [10] in a line: Kainic acid-induced seizure. In kind it is in vivo, mouse. Conditions: 20 mg/kg i.p. How it is done:
To test the allosteric potentiation of GABAARs by presynaptically released glutamate under certain physiological conditions, we delivered five trains of four pulses of theta-burst stimulation to increase endogenous glutamate released from the presynaptic glutamatergic terminals, and compared its effect on the pharmacologically isolated eIPSCs (following blockade of both AMPAR and NMDAR-mediated EPSCs) in WT and KI mice.
Kainic acid (KA) was dissolved in sterile saline at the concentration of 20 mg/ml. KA (20 mg/kg, i.p.) or same volume of saline as vehicle control was administered by intraperitoneal injection to induce seizures. Diazepam (20 mg/kg, s.c., obtained from Children’s Hospital of Chongqing Medical University) was injected 30 min before the injection of KA. […] All experiments were performed in accordance with approved institutional animal care guidelines.

Turning to `Cc1onc(O)c1CC(N)C(=O)O` (stereo not drawn) [AMPA, α-amino-3-hydroxyl-5-methyl-4-isoxazole-propionate], in assay [1], the “GABA-mediated currents in presence of ligand, compared with currents induced by GABA alone” value is recorded as 339.2 ± 38.0%. Moreover, in [2], the “GABA currents in presence of ligand, compared with GABA alone” value (from here on “GABA currents … compared with GABA alone”) stood at 165.8 ± 6.2%.
As for `N[C@H](CCCP(=O)(O)O)C(=O)O` [AP5, D-2-amino-5-phosphonovaleric acid], in assay [1] (ligand 100 μM, GABA 1 μM), the “GABA-mediated currents in presence of ligand, compared with currents induced by GABA alone” value was determined as 254.9 ± 33.0%. Besides, the “GABA currents … compared with GABA alone” value in [2] (ligand 100 μM each, GABA 1 μM) stood at 173.3 ± 3.7%. Moreover, the “[3H]glutamate binding activity in presence of competitor” value in assay [3] (40 nM [3H]glutamate + 0.4 mM non-radiolabeled competitor) came to 240.8 ± 36.8 CPM. Moreover, the “amplitude of GABA currents, % of the control” value in assay [4] (AP5 100 μM bath, GABA 0.5 μM, TTX and CNQX present) is listed as 157.7 ± 9.1%. Besides, in [4] (AP5 200 µM, GABA 10 μM), the “reversal potential of GABA currents (I-V curve)” value was “without altering the reversal potential”. In addition, the “potentiation of GABA currents after NMDA receptor blockade” value in assay [4] (after MK-801 10 μM + NMDA 50 μM for 3 min, AP5 200 μM, GABA 10 μM (Fig. S1a)) is on record as “reversibly potentiated GABA currents”. In [4] (read-out: EC50 of AP5 enhancement of GABA currents, GABA 0.5 μM), the concentration for a half-maximal effect (EC50) (commonly the concentration at which the effect is half-maximal) came out at 150 ± 27 µM. In [5], this compound had a mIPSC amplitude of 36.6 ± 3.6 pA and a mIPSC frequency of 0.90 ± 0.29 Hz. Further, in assay [6], the “tonic current revealed by bicuculline” value came out at 17.28 ± 2.80 pA. Moreover, the “GABA-evoked currents relative to baseline” value in [7] was 193.5 ± 27.0%. In addition, the “GABA-evoked currents relative to baseline” value in assay [8] is on record as 104.6 ± 12.7%.
Consider `N#Cc1cc2[nH]c(=O)c(=O)[nH]c2cc1[N+](=O)[O-]` [CNQX, 6-cyano-7-nitroquinoxaline-2,3-dione], for which, in assay [1] (CNQX 10 μM, GABA 1 μM), the “GABA evoked currents in presence of ligand, compared with GABA alone” value is 107.3 ± 6.5%. The “effect on GABA-evoked currents” value in assay [1] (CNQX 1 mM, data not shown) was “did not affect GABA-evoked currents”. The “GABA currents … compared with GABA alone” value in [2] (CNQX, concentration not given, GABA 1 μM) came out at 105.6 ± 6.5%.
As for `C[C@]12N[C@H](Cc3ccccc31)c1ccccc12` [MK-801], the “effect on GABA currents” value in [1] (MK-801, concentration not given, data not shown) is on record as “did not affect GABA currents”. Moreover, the NMDA receptor blockade entry in [9] was “complete and long-lasting NMDA receptor blockade”.
As for `CN[C@H](CC(=O)O)C(=O)O` [NMDA, N-methyl-D-aspartate], the “GABA-mediated currents in presence of ligand, compared with currents induced by GABA alone” value in [1] was determined as 267.6%. The “GABA currents … compared with GABA alone” value in assay [2] is recorded as 171.7 ± 5.4%.
As for `N[C@H](C(=O)O)[C@@H](OCc1ccccc1)C(=O)O` [TBOA, threo-β-Benzyloxyaspartic acid], in [1] (ligand 100 μM, GABA 1 μM), the “GABA-mediated currents in presence of ligand, compared with currents induced by GABA alone” value is listed as 202.8 ± 18.3%. For the same compound, the “GABA currents … compared with GABA alone” value in [2] (ligand 100 μM each, GABA 1 μM) is on record as 159.9 ± 7.8%.
Consider `C=C(C)[C@H]1CN[C@H](C(=O)O)[C@H]1CC(=O)O` [kainic acid], for which the “GABA-mediated currents in presence of ligand, compared with currents induced by GABA alone” value in assay [1] worked out at 388.2 ± 61.0%. The “GABA currents … compared with GABA alone” value in [2] amounted to 188.7 ± 5.5%. Further, the “latency of kainic acid-induced seizure activity” value in assay [10] (WT mice) came out at 189.6 ± 15.2 s; in assay [10] (β2E181G KI mice) it was 161.0 ± 4.0 s.
Consider [^3H]glutamate, for which the “[3H]glutamate binding activity” value in assay [3] (40 nM [3H]glutamate only, 100 µg membrane, 1 h on ice) worked out at 938.2 ± 82.7 CPM.
